Test results: paper PMC7708434 (Biochimica et biophysica acta. General subjects, 2020)

How the values were obtained:
Assay type in all cases: binding
[1] = target: T1, 4-hydroxy-tetrahydrodipicolinate reductase (VvDapB) (Vibrio vulnificus, UniProt Q8DEM0); test: X-ray crystal structure
[2] = target: T2, 4-hydroxy-tetrahydrodipicolinate reductase (MtDapB) (Mycobacterium tuberculosis, UniProt P9WP23); test: X-ray crystal structure
[3] = target: T2, 4-hydroxy-tetrahydrodipicolinate reductase (MtDapB); test: ITC
[4] = target: T1, 4-hydroxy-tetrahydrodipicolinate reductase (VvDapB); test: ITC

T2 sequence (P9WP23 whole entry): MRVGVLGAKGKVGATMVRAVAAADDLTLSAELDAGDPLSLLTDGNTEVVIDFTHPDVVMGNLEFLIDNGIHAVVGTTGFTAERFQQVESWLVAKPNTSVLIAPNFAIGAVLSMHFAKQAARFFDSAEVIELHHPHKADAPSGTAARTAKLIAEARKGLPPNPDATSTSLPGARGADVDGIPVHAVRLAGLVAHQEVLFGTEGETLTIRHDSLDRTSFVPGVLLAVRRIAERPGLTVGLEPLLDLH
T1 sequence (Q8DEM0 whole entry): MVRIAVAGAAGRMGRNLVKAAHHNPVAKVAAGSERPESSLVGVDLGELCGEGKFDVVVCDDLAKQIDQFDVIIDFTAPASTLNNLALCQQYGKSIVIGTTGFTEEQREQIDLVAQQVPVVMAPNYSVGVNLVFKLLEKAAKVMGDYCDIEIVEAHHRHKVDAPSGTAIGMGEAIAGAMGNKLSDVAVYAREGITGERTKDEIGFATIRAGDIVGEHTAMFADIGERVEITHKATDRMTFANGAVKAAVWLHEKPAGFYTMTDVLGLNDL

| Compound | X-ray crystal structure [1] | X-ray crystal structure [2] | Kd [3] | Kd [4] |
| --- | --- | --- | --- | --- |
| NC(=O)c1ccc[n+]([C@@H]2O[C@H](COP(=O)([O-])OP(=O)(O)OC[C@H]3O[C@@H](n4cnc5c(N)ncnc54)[C@H](O)[C@@H]3O)[C@@H](O)[C@H]2O)c1 [NAD+] | NADH was used for crystallization, in all cases we observed NAD^+ in the crystal structures | apo MtDapB (PDB ID: 5TEK chain A) and NAD^+ bound MtDapB (PDB ID: 5UGV chain A) structures |  |  |
| NC(=O)C1=CN([C@@H]2O[C@H](COP(=O)(O)OP(=O)(O)OC[C@H]3O[C@@H](n4cnc5c(N)ncnc54)[C@H](O)[C@@H]3O)[C@@H](O)[C@H]2O)C=CC1 [NADH] |  |  | 3.6 ± 0.4 µM | 3.9 ± 1.2 µM |
